Several values for one entry are separate records, joined by “and”; a condition that tells them apart may be missing. Identical values can stand only once.
Columns and labels:
Type in all cases: physicochemical
[1] = ICH light stress of NAT in formulation buffer, RP-HPLC at 240 nm; settings: for % NAT degradation ± 1SD: ICH light stress (1.2 million lux-hours, 200 W-hours/m^2 UV, 24 hours), 0.3 mM NAT
Protocol: A light box [Atlas SunTEST CPS+ Xenon Light Box (Chicago, Ill.)] designed to conduct the drug substance/product photostability test recommended by the International Conference on Harmonization (ICH) Expert Working Group was utilized to provide light stress to NAT-containing samples. The ICH photostability test is defined as 1.2 million lux-hours of white light and 200 W-hours/m^2 of UV light; the light box was programmed to provide the stress over a period of 24 hours. Histidine and non-histidine buffers containing 0.3 mM NAT ±5 mM L-Met were aliquoted into sterile glass vials (1 ml/vial). The vials were capped and placed on their side in the light box to maximize exposure to the light source. A control sample for each buffer condition was covered in foil and placed in the light box for the duration of exposure. For consistency with the other stress models, prior to HPLC analysis, the buffer solutions were diluted with Milli-Q H2O to a final NAT concentration of 0.2 mM.
(§1) NAT and NAT degradants were separated on an Agilent 1200 series HPLC or Waters H Class UPLC using an Agilent ZORBAX SB-C18 3.5 μm, 4.6×75 mm reverse phase column. Column temperature was held at 30±0.8° C. by a thermostat controller. The gradients used for HPLC and UPLC are listed in Tables 5 and 6, respectively (note: the shorter gradient on the UPLC was designed to accommodate earlier retention times and the column re-equilibration period was elongated due to the larger range of system pressure at a flow rate of 1.0 ml/min). NAT degradation products were detected at 240 nm. The standard bandwidth setting (8 nm for Agilent 1200 HPLC, 4.8 nm for Waters H-Class) was used for analysis on each instrument. The autosampler was maintained at 5±3° C. 10 nmol of NAT and/or NAT degradants (50 μl for most samples) was injected on to the column for analysis. The chromatograms were processed using Dionex Chromeleon software.
(§2) Total NAT degradation for each sample was calculated by comparing NAT peak area to the control sample for each stress model (Table 7). NAT degradation ranged from 3% (thermal stress, non-His buffer) to 83% (ICH light stress, His buffer).

[2] = Fenton stress of NAT in formulation buffer, RP-HPLC at 240 nm; settings: for % NAT degradation ± 1SD: Fenton stress (0.2 mM FeCl2, 10 ppm H2O2, 3 hours 40° C.)
Protocol: FeCl2 (Sigma Aldrich, 98% purity) and H2O2 (Sigma Aldrich, 30% w/w in H2O) were added to a final concentration of 0.2 mM and 10 ppm, respectively, to a histidine-containing buffer at pH 5.5 with 0.3 mM NAT ±5 mM L-Met, pH 5.5. Upon addition of H2O2 the vials were vortexed briefly and incubated for 3 hours at 40° C. Oxidation was quenched by the addition of L-Met to a final concentration of 100 mM. After the addition of the quenching solution, the final NAT concentration was 0.2 mM.
as §1, §2

[3] = AAPH oxidation stress of NAT in formulation buffer, RP-HPLC at 240 nm; settings: for % NAT degradation ± 1SD: AAPH stress (1.0 mM AAPH, 40° C. 16 hours)
Protocol: AAPH (Calbio Chem, 99.8%) was used to model oxidative degradation by alkyl peroxides. Histidine and non-histidine buffers at pH 5.5 containing 0.3 mM NAT ±5 mM L-Met pH 5.5 were treated with an aqueous AAPH solution to a final concentration of 1.0 mM AAPH. An equivalent volume of Milli-Q H2O was added to control samples. Samples were incubated at 40° C. for 16 hours. Oxidation was quenched by the addition of L-Met to a final concentration of 20 mM. After the addition of the quenching solution, the final NAT concentration was 0.2 mM. NAT and NAT degradants were separated on an Agilent 1200 series HPLC or Waters H Class UPLC using an Agilent ZORBAX SB-C18 3.5 μm, 4.6×75 mm reverse phase column. Column temperature was held at 30±0.8° C. by a thermostat controller. The gradients used for HPLC and UPLC are listed in Tables 5 and 6, respectively (note: the shorter gradient on the UPLC was designed to accommodate earlier retention times and the column re-equilibration period was elongated due to the larger range of system pressure at a flow rate of 1.0 ml/min). NAT degradation products were detected at 240 nm. The standard bandwidth setting (8 nm for Agilent 1200 HPLC, 4.8 nm for Waters H-Class) was used for analysis on each instrument. The autosampler was maintained at 5±3° C. 10 nmol of NAT and/or NAT degradants (50 μl for most samples) was injected on to the column for analysis. The chromatograms were processed using Dionex Chromeleon software. Protein-containing samples were diluted in guanidine and the proteins removed via ultra-filtration (Amicon spin filters with a 30 kDa molecular weight cut-off). […] Using the final sample preparation conditions, recovery of NAT was 94-99% for three tested antibody/antibody derivatives and recovery of NAT degradants was 98-100% (data not shown). […] Total NAT degradation for each sample was calculated by comparing NAT peak area to the control sample for each stress model (Table 7). NAT degradation ranged from 3% (thermal stress, non-His buffer) to 83% (ICH light stress, His buffer). The impact of low concentrations of protein on AAPH-induced NAT degradation was also analyzed. Two antibodies (protein1 and protein2) were diluted to 1.0 mg/ml in buffer and formulated with 0.3 mM NAT (˜45:1 mol NAT:mol protein). Upon AAPH stress, the level of NAT degradation was largely consistent between protein-containing and protein-free solutions (˜40% loss in NAT peak area), as was the distribution of oxidant species (FIG. 11).

[4] = Thermal stress of NAT in formulation buffer, RP-HPLC at 240 nm; settings: elevated temperature (40° C., 5 months), His buffer, 1.0 mM NAT
Protocol: Histidine and non-histidine buffers containing 1.0 mM NAT were aliquoted into sterile glass vials (5 ml/vial, 6 vials per buffer). Vials were stored in a dark box at the indicated temperatures during the stress and transferred to −70° C. for storage until analysis (timepoints taken monthly for five months). Initial time points for samples of each buffer solution were transferred immediately to −70° C. Prior to analysis, the samples were thawed and diluted with Milli-Q H2O to a final NAT concentration of 0.2 mM.
as §1, with “10 nmol of NAT and/or NAT degradants (50 μl for most samples) was injected on to the column for analysis. The chromatograms were processed using Dionex Chromeleon software.” left out
Total NAT degradation for each sample was calculated by comparing NAT peak area to the control sample for each stress model (Table 7). […]

[5] = His + 5 mM Met buffer, 0.3 mM NAT

% NAT degradation ± 1SD ([1]; His + 5 mM Met buffer): 17.6 ± 0.7 (n = 2) %
% NAT degradation ± 1SD ([1]; His buffer): 83.4 ± 0.2 (n = 2) %
% NAT degradation ± 1SD ([1]; Non-His + 5 mM Met buffer): 18 ± 2 (n = 2) %
% NAT degradation ± 1SD ([1]; Non-His buffer): 28% and 28.0 ± 0.1 (n = 2) %
improvement to NAT stability by 5 mM Met (total NAT loss) ([1]; ICH light stress conditions): 10-16%
improvement to NAT stability by 5 mM Met (total NAT loss) ([2]; Fenton model): 25%
% NAT degradation ± 1SD [2, 5]: 15.2 ± 0.7 (n = 3) %
% NAT degradation ± 1SD ([2]; His buffer pH 5.5, 0.3 mM NAT): 40 ± 3 (n = 3) %
NAT degradation (loss) ([2]; Fenton stress, under all tested conditions): 30-40% and 33-41%
improvement to NAT stability by 5 mM Met (total NAT loss) ([3]; AAPH model, depending on buffer): 4-8%
% NAT degradation ± 1SD [3, 5]: 34.7 ± 0.1 (n = 3) %
% NAT degradation ± 1SD ([3]; His buffer pH 5.5, 0.3 mM NAT): 39.8 ± 0.2 (n = 3) %
% NAT degradation ± 1SD ([3]; Non-His + 5 mM Met buffer, 0.3 mM NAT): 32.9 ± 0.5 (n = 3) %
% NAT degradation ± 1SD ([3]; Non-His buffer pH 5.5, 0.3 mM NAT): 41.1 ± 0.7 (n = 3) %
NAT degradation (loss) ([3]; AAPH stress, under all tested conditions): 30-40% and 33-41%
loss in NAT peak area ([3]; AAPH stress, 0.3 mM NAT in histidine-based buffer, protein-free or with 1.0 mg/ml protein1 or protein2): ~40%
% NAT degradation ± 1SD [4]: 11.1 (n = 1) %
SMILES: CC(=O)N[C@@H](Cc1c[nH]c2ccccc12)C(=O)O [NAT, N-acetyl-tryptophan]

— patent US20200246465A1, “USE OF TRYPTOPHAN DERIVATIVES FOR PROTEIN FORMULATIONS” (Genentech, Inc., priority 2015, published 2020)
